According to PMC10033419, “Blocking NS3–NS4B interaction inhibits dengue virus in non-human primates” (Nature, 2023):

System: DENV-1/45AZ5
Assay: NHP DENV-1 study, serum viral RNA RT-qPCR
Format: in vivo, rhesus macaques
Experimental: WRAIR is fully accredited by AAALAC International.
Serum samples from macaques were checked for the presence of DENV-1 RNA. Viral RNA for RT–qPCR was extracted from 100–200 µl of serum using the QIAcube instrumentation and the QIAGEN Viral RNA extraction kits. The primers and fluorogenic probes used in the RT–qPCR assays have been previously described[63],[64]. DENV-1 RNA was detected in a 25 µl reaction containing 5 µl of extracted RNA sample, 10 pmol of dengue-specific primers and 5 pmol dengue probe in the reaction mixture from Superscript Ill Platinum One-Step Quantitative RT-PCR Kit (Invitrogen, Thermo Fisher Scientific), consisting of 0.5 µl Superscript III RT/Platinum mix, 12.5 µl 2× reaction mix and 0.05 µl ROX reference dye. The one-step RT–qPCR comprises a 30 min RT step at 50 °C and 2 min of Taq polymerase activation at 94 °C, followed by 40 cycles of PCR at 94 °C for 5 s and 53 °C for 35 s performed in an ABI 7500DX Fast Real Time PCR system. Each assay included positive, negative and non-template controls. The RNA copy number was calculated from a standard curve of tenfold serial dilutions made from RNA in vitro transcripts consisting of DENV-1 with known copy numbers. The LLOQ was 100 genomic copies per reaction.
This sample size was sufficient to detect a significant difference in the number of infected animals in each of the groups as low as 83%. […] Sample processing and conducting of assays was performed by laboratory technicians not involved in the treatment/manipulation of the animals.

COc1cc(N[C@H](C(=O)c2c[nH]c3ccc(OC(F)(F)F)cc23)c2ccc(Cl)cc2OC)cc(S(C)(=O)=O)c1 [JNJ-1802]
0.00E+00 GE/mL: qRT-PCR Assay Average GE/mL (animal R9, Day 29, LOQ 100 GE/reaction) | qRT-PCR Assay Average GE/mL (animal R10, Day 0, Assay LOQ = 100 GE/reaction) | qRT-PCR Assay Average GE/mL (animal R10, Day 1, Assay LOQ = 100 GE/reaction) | qRT-PCR Assay Average GE/mL (animal R10, Day 2, Assay LOQ = 100 GE/reaction) | qRT-PCR Assay Average GE/mL (animal R10, Day 3, Assay LOQ = 100 GE/reaction) | qRT-PCR Assay Average GE/mL (animal R10, Day 4, Assay LOQ = 100 GE/reaction) | qRT-PCR Assay Average GE/mL (animal R10, Day 5, Assay LOQ = 100 GE/reaction) | qRT-PCR Assay Average GE/mL (animal R10, Day 6, Assay LOQ = 100 GE/reaction) | qRT-PCR Assay Average GE/mL (animal R10, Day 7, Assay LOQ = 100 GE/reaction) | qRT-PCR Assay Average GE/mL (animal R10, Day 8, Assay LOQ = 100 GE/reaction) | qRT-PCR Assay Average GE/mL (animal R10, Day 9, Assay LOQ = 100 GE/reaction) | qRT-PCR Assay Average GE/mL (animal R10, Day 10, Assay LOQ = 100 GE/reaction) | qRT-PCR Assay Average GE/mL (animal R10, Day 11, Assay LOQ = 100 GE/reaction) | qRT-PCR Assay Average GE/mL (animal R10, Day 14, Assay LOQ = 100 GE/reaction) | qRT-PCR Assay Average GE/mL (animal R10, Day 29, Assay LOQ = 100 GE/reaction) | qRT-PCR Assay Average GE/mL (animal R11, Day 0, Assay LOQ = 100 GE/reaction) | qRT-PCR Assay Average GE/mL (animal R11, Day 1, Assay LOQ = 100 GE/reaction) | qRT-PCR Assay Average GE/mL (animal R11, Day 2, Assay LOQ = 100 GE/reaction) | qRT-PCR Assay Average GE/mL (animal R11, Day 3, Assay LOQ = 100 GE/reaction) | qRT-PCR Assay Average GE/mL (animal R11, Day 4, Assay LOQ = 100 GE/reaction) | qRT-PCR Assay Average GE/mL (animal R11, Day 5, Assay LOQ = 100 GE/reaction) | qRT-PCR Assay Average GE/mL (animal R11, Day 6, Assay LOQ = 100 GE/reaction) | qRT-PCR Assay Average GE/mL (animal R11, Day 7, Assay LOQ = 100 GE/reaction) | qRT-PCR Assay Average GE/mL (animal R11, Day 8, Assay LOQ = 100 GE/reaction) | qRT-PCR Assay Average GE/mL (animal R11, Day 9, Assay LOQ = 100 GE/reaction) | qRT-PCR Assay Average GE/mL (animal R11, Day 10, Assay LOQ = 100 GE/reaction) | qRT-PCR Assay Average GE/mL (animal R11, Day 11, Assay LOQ = 100 GE/reaction) | qRT-PCR Assay Average GE/mL (animal R11, Day 14, Assay LOQ = 100 GE/reaction) | qRT-PCR Assay Average GE/mL (animal R11, Day 29, Assay LOQ = 100 GE/reaction) | qRT-PCR Assay Average GE/mL (animal R12, Day 0, Assay LOQ = 100 GE/reaction) | qRT-PCR Assay Average GE/mL (animal R12, Day 1, Assay LOQ = 100 GE/reaction) | qRT-PCR Assay Average GE/mL (animal R12, Day 2, Assay LOQ = 100 GE/reaction) | qRT-PCR Assay Average GE/mL (animal R12, Day 3, Assay LOQ = 100 GE/reaction) | qRT-PCR Assay Average GE/mL (animal R12, Day 4, Assay LOQ = 100 GE/reaction) | qRT-PCR Assay Average GE/mL (animal R12, Day 5, Assay LOQ = 100 GE/reaction) | qRT-PCR Assay Average GE/mL (animal R12, Day 6, Assay LOQ = 100 GE/reaction) | qRT-PCR Assay Average GE/mL (animal R12, Day 7, Assay LOQ = 100 GE/reaction) | qRT-PCR Assay Average GE/mL (animal R12, Day 8, Assay LOQ = 100 GE/reaction) | qRT-PCR Assay Average GE/mL (animal R12, Day 9, Assay LOQ = 100 GE/reaction) | qRT-PCR Assay Average GE/mL (animal R12, Day 10, Assay LOQ = 100 GE/reaction) | qRT-PCR Assay Average GE/mL (animal R12, Day 11, Assay LOQ = 100 GE/reaction) | qRT-PCR Assay Average GE/mL (animal R12, Day 14, Assay LOQ = 100 GE/reaction) | qRT-PCR Assay Average GE/mL (animal R12, Day 29, Assay LOQ = 100 GE/reaction)
Negative: qRT-PCR Assay Result (animal R10, Day 0) | qRT-PCR Assay Result (animal R10, Day 1) | qRT-PCR Assay Result (animal R10, Day 2) | qRT-PCR Assay Result (animal R10, Day 3) | qRT-PCR Assay Result (animal R10, Day 4) | qRT-PCR Assay Result (animal R10, Day 5) | qRT-PCR Assay Result (animal R10, Day 6) | qRT-PCR Assay Result (animal R10, Day 7) | qRT-PCR Assay Result (animal R10, Day 8) | qRT-PCR Assay Result (animal R10, Day 9) | qRT-PCR Assay Result (animal R10, Day 10) | qRT-PCR Assay Result (animal R10, Day 11) | qRT-PCR Assay Result (animal R10, Day 14) | qRT-PCR Assay Result (animal R10, Day 29) | qRT-PCR Assay Result (animal R11, Day 0) | qRT-PCR Assay Result (animal R11, Day 1) | qRT-PCR Assay Result (animal R11, Day 2) | qRT-PCR Assay Result (animal R11, Day 3) | qRT-PCR Assay Result (animal R11, Day 4) | qRT-PCR Assay Result (animal R11, Day 5) | qRT-PCR Assay Result (animal R11, Day 6) | qRT-PCR Assay Result (animal R11, Day 7) | qRT-PCR Assay Result (animal R11, Day 8) | qRT-PCR Assay Result (animal R11, Day 9) | qRT-PCR Assay Result (animal R11, Day 10) | qRT-PCR Assay Result (animal R11, Day 11) | qRT-PCR Assay Result (animal R11, Day 14) | qRT-PCR Assay Result (animal R11, Day 29) | qRT-PCR Assay Result (animal R12, Day 0) | qRT-PCR Assay Result (animal R12, Day 1) | qRT-PCR Assay Result (animal R12, Day 2) | qRT-PCR Assay Result (animal R12, Day 3) | qRT-PCR Assay Result (animal R12, Day 4) | qRT-PCR Assay Result (animal R12, Day 5) | qRT-PCR Assay Result (animal R12, Day 6) | qRT-PCR Assay Result (animal R12, Day 7) | qRT-PCR Assay Result (animal R12, Day 8) | qRT-PCR Assay Result (animal R12, Day 9) | qRT-PCR Assay Result (animal R12, Day 10) | qRT-PCR Assay Result (animal R12, Day 11) | qRT-PCR Assay Result (animal R12, Day 14) | qRT-PCR Assay Result (animal R12, Day 29)
